The text below walks through data of BindingDB's records for patent US9145380 (Astrazeneca, 2015).

This test concerns the target T1, Prostaglandin E synthase (Homo sapiens, UniProt O14684).
T1 sequence (O14684 whole entry): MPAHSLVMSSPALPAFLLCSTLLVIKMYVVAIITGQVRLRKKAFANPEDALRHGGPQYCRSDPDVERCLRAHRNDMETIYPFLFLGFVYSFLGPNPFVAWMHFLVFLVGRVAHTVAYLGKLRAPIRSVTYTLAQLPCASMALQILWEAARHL
Kind of test: Biochemical Assay. The note with it: pH 6.8. How it is done:
A solution of test compound was added to a diluted microsome preparation containing human mPGES-1 and pre-incubated for 15 minutes in potassium phosphate buffer pH 6.8 with cofactor glutathione (GSH). Corresponding solutions without test compound were used as positive controls, and corresponding solutions without test compound and without microsomes were used as negative controls. The enzymatic reaction was then started by addition of the substrate PGH2 in an organic solution (dry acetonitrile).The typical reaction conditions of the enzymatic reaction were thus: Test compound: ranging from 60 uM to 0.002 uM, or zero in positive and negative controls; potassium phosphate buffer pH 6.8: 50 mM; GSH: 2.5 mM; mPGES-1-containing microsomes: 2 ug/mL (sample and positive controls) or 0 ug/mL (negative control); PGH2: 10.8 uM; Acetonitrile: 7.7% (v/v); DMSO: 0.6% (v/v). The reaction was stopped after one minute by adding an acidic solution (pH 1.9) of ferric chloride.

Broadly, the IC50 is the point on the concentration scale where inhibition reaches its midpoint. A high value points to a need for much substance. `COc1ccc(Br)cc1/C=C/S(=O)(=O)Nc1ccc(C#CC(C)(C)O)cc1S(N)(=O)=O` [US9145380, 179] showed an IC50 of 6.2 µM.
